Laboratory results published in patent publication US12251382B2, “Substituted amino-pyrimidine compound for use in a method for treatment and prevention of multiple sclerosis” (Merck Patent GmbH, priority 2018, dated 2025).
Read-outs that look alike come from different tables or passages of the source.

[1] = Part 1, pooled active, listed as evobrutinib

Protocol: A randomized, double-blind, placebo-controlled trial conducted in healthy volunteers. […] Written informed consent was obtained from all participants.
Following completion of each dose cohort in both parts of the study, a safety monitoring committee (SMC) decided whether protocol-defined dose escalation to the next level was appropriate to a maximum of 500 mg in Part 1, or to the highest safe and tolerated dose or highest dose from Part 1 in Part 2, based on all safety data and other available data (including PK and PD data). […] Other safety data (e.g., hematology parameters) were also taken into consideration for dose escalation decisions as a matter of course.
TEAEs and SAEs were recorded from time of informed consent until study completion. […] Assessment of severity considered the Toxicity Grading Scale for Healthy Adult and Adolescent Volunteers Enrolled in Preventative Vaccine Clinical Trials. Data were summarized using descriptive statistics.

## C=CC(=O)N1CCC(CNc2ncnc(N)c2-c2ccc(Oc3ccccc3)cc2)CC1 [Evobrutinib, 1-(4-(((6-amino-5-(4-phenoxyphenyl)pyrimidin-4-yl)amino)methyl)piperidin-1-yl)prop-2-en-1-one]
Part 1
  Severity of TEAEs: mild (Grade 1) except in one subject in the 200 mg treatment group
Part 1, all evobrutinib doses
  Subjects with contact dermatitis at locations of ECG pads: 5.6%
  Subjects with headache: 5.6%
Part 1, one subject in the 200 mg treatment group
  Dose-limiting TEAE: Grade 4 increased lipase in combination with Grade 3 increased amylase
Part 1, pooled active
  Abdominal pain, subjects: 0 (0.0) n (%)
  Amylase increased, number of TEAEs: [1]
  Amylase increased, subjects: 1 (2.8) n (%)
  Application site pruritus (due to ECG stickers), subjects: 0 (0.0) n (%)
  Back pain, number of TEAEs: [1]
  Back pain, subjects: 1 (2.8) n (%)
  Contact dermatitis, number of TEAEs: [2]
  Contact dermatitis, subjects: 2 (5.6) n (%)
  Dizziness, number of TEAEs: [1]
  Dizziness, subjects: 1 (2.8) n (%)
  Dry eye, number of TEAEs: [1]
  Dry eye, subjects: 1 (2.8) n (%)
  Dry mouth, subjects: 0 (0.0) n (%)
  Dyspepsia, number of TEAEs: [1]
  Dyspepsia, subjects: 1 (2.8) n (%)
  Excoriation, number of TEAEs: [1]
  Excoriation, subjects: 1 (2.8) n (%)
  Headache, number of TEAEs: [3]
  Headache, subjects: 2 (5.6) n (%)
  Lipase increased, number of TEAEs: [1]
  Lipase increased, subjects: 1 (2.8) n (%)
  Multiple injuries, number of TEAEs: [1]
  Multiple injuries, subjects: 1 (2.8) n (%)
  Nasal congestion, number of TEAEs: [1]
  Nasal congestion, subjects: 1 (2.8) n (%)
  Noncardiac chest pain, subjects: 0 (0.0) n (%)
  Odynophagia, number of TEAEs: [1]
  Odynophagia, subjects: 1 (2.8) n (%)
  Overall total TEAEs, subjects: 9 (25.5) n (%)
  Overall total, number of TEAEs: [15]
  Upper respiratory tract infection, subjects: 0 (0.0) n (%)
[1]
  Contact dermatitis, number of TEAEs: two
  Headache, number of TEAEs: three
  Overall total, number of TEAEs: 15
Part 1, single dose 25 mg
  Abdominal pain, subjects: 0 (0.0) n (%)
  Amylase increased, subjects: 0 (0.0) n (%)
  Application site pruritus (due to ECG stickers), subjects: 0 (0.0) n (%)
  Back pain, subjects: 0 (0.0) n (%)
  Contact dermatitis, subjects: 0 (0.0) n (%)
  Dizziness, subjects: 0 (0.0) n (%)
  Dry eye, subjects: 0 (0.0) n (%)
  Dry mouth, subjects: 0 (0.0) n (%)
  Dyspepsia, subjects: 0 (0.0) n (%)
  Excoriation, subjects: 0 (0.0) n (%)
  Headache, subjects: 0 (0.0) n (%)
  Lipase increased, subjects: 0 (0.0) n (%)
  Multiple injuries, subjects: 0 (0.0) n (%)
  Nasal congestion, subjects: 0 (0.0) n (%)
  Noncardiac chest pain, subjects: 0 (0.0) n (%)
  Odynophagia, subjects: 0 (0.0) n (%)
  Overall total TEAEs, subjects: 0 (0.0) n (%)
  Upper respiratory tract infection, subjects: 0 (0.0) n (%)
Part 1, single dose 50 mg
  Abdominal pain, subjects: 0 (0.0) n (%)
  Amylase increased, subjects: 0 (0.0) n (%)
  Application site pruritus (due to ECG stickers), subjects: 0 (0.0) n (%)
  Back pain, number of TEAEs: [1]
  Back pain, subjects: 1 (16.7) n (%)
  Contact dermatitis, number of TEAEs: [2]
  Contact dermatitis, subjects: 2 (33.3) n (%)
  Dizziness, subjects: 0 (0.0) n (%)
  Dry eye, subjects: 0 (0.0) n (%)
  Dry mouth, subjects: 0 (0.0) n (%)
  Dyspepsia, number of TEAEs: [1]
  Dyspepsia, subjects: 1 (16.7) n (%)
  Excoriation, subjects: 0 (0.0) n (%)
  Headache, number of TEAEs: [2]
  Headache, subjects: 1 (16.7) n (%)
  Lipase increased, subjects: 0 (0.0) n (%)
  Multiple injuries, subjects: 0 (0.0) n (%)
  Nasal congestion, subjects: 0 (0.0) n (%)
  Noncardiac chest pain, subjects: 0 (0.0) n (%)
  Odynophagia, subjects: 0 (0.0) n (%)
  Overall total TEAEs, subjects: 3 (50.0) n (%)
  Overall total, number of TEAEs: [6]
  Upper respiratory tract infection, subjects: 0 (0.0) n (%)
Part 1, single dose 100 mg
  Abdominal pain, subjects: 0 (0.0) n (%)
  Amylase increased, subjects: 0 (0.0) n (%)
  Application site pruritus (due to ECG stickers), subjects: 0 (0.0) n (%)
  Back pain, subjects: 0 (0.0) n (%)
  Contact dermatitis, subjects: 0 (0.0) n (%)
  Dizziness, subjects: 0 (0.0) n (%)
